The source of these data is patent publication US20170342021A1, “RAS-INHIBITING INDENYL ACETAMIDE COMPOUNDS, COMPOSITIONS, AND USES” (ADT Pharmaceuticals, Inc., priority 2014, published 2017).

The subject of experiment [1] is HCT-116 colon tumor cells expressing mutant Ras, compared to HT-29 expressing wild-type Ras. In words: Ras selectivity by growth inhibition, HT-29 versus HCT-116. The class given is cell-based, human. As to conditions: ratio of IC50 in HT-29 to IC50 in HCT-116; 5000 cells/well, 96-well plates, Cell Titer Glo. The method, then: (§1) This example illustrates cell growth assays that can be employed in the present invention. Cells can include A-549, HT-29, MDA-MB-231, Colo-205, Caco2, HCT-116, SW-480, and DLD-1 human cancer cells obtained from the American Type Culture Collection (ATCC). Human tumor cells are cultured using standard methods in RPMI-1640 growth medium supplemented with 5% fetal bovine serum (FBS). Normal rat kidney (NRK) and Ki-Ras transformed NRK cells (K-NRK) are obtained from ATCC, and were cultured according to supplier recommendations. CellTiter-Glo ATP cell growth assay reagents are obtained from Promega and used according to the manufacturer's protocol. Inhibitors of EGFR, Raf, and MEK are obtained from Selleck Chemicals. Cells are plated at a density of 5,000 cells per well in 96-well microplates or 1,250 cells per well in 384-well plates, and allowed to attach for at least 4 h. Test compounds are dissolved in dimethyl sulfoxide (DMSO), and this working stock is further diluted in growth medium for addition to cell cultures. Serial dilutions of the test compound are prepared in growth medium containing an equal amount of DMSO not exceeding 0.2% final concentration. Each compound concentration is tested in at least 3 separate samples per cell line. At the end of a 3-day treatment period, growth inhibition is analyzed using a bioluminescent assay of ATP concentration (Promega CellTiter-Glo) according to the manufacturer's protocol. The resulting luminescence is measured using the luminescence cartridge of the Molecular Devices Spectramax Paradigm microplate reader. The relative growth inhibition for each sample is determined by comparison with the values obtained for vehicle treated control samples. Growth inhibition values are plotted with the GraphPad Prism5 software using the 4-parameter logistic fit to obtain IC50 values, which corresponds to the growth inhibitory potency of the compound.
(§2) This example illustrates the use of well-established human colon tumor cell lines with widely divergent Ras activation status to determine selectivity values for exemplary compounds of the present invention. Cell lines thus employed in this example were HCT-116, a highly Ras-driven line expressing mutant Ras, SW-480, another strongly Ras-driven line expressing mutant Ras, and HT-29, a non-Ras-driven line expressing wild-type, non-mutated Ras. Cells were plated at 5000 cells/well in 96-well plates, and viable cell numbers were measured using the Cell Titer Glo ATP luminescence assay (Promega). FIGS. 5A-5F show results of these studies for exemplary compounds 054, 058, 057, 055, and 056, respectively. The calculated HT-29/HCT-116 selectivity values for the first five of the aforementioned compounds were 14, 13, 18, 11 and 5, respectively. The calculated HT-29/SW-480 selectivity values for the aforementioned compounds were 16, 16, 19, 13 and 5, respectively.

Experiment [2] deals with SW-480 colon tumor cells expressing mutant Ras, compared to HT-29 expressing wild-type Ras. In words: Ras selectivity by growth inhibition, HT-29 versus SW-480. As to conditions: ratio of IC50 in HT-29 to IC50 in SW-480; 5000 cells/well, 96-well plates, Cell Titer Glo. Type of experiment: cell-based, human. On the procedure: as §1, §2
A further experiment has as its system HCT-116. The experiment can be described thus: CellTiter-Glo growth inhibition, HCT-116. Type of experiment: cell-based, human. As to conditions: ten-fold serial dilutions, ras-mutant line. The method, then: as §1, with “Cells can include A-549, HT-29, MDA-MB-231, Colo-205, Caco2, HCT-116, SW-480, and DLD-1 human cancer cells obtained from the American Type Culture Collection (ATCC). Human tumor cells are cultured using standard methods in RPMI-1640 growth medium supplemented with 5% fetal bovine serum (FBS).” left out
(§3) Cells were seeded in 384-well plates and allowed to attach. Ten-fold serial dilutions of compounds were tested. Each compound concentration was tested in at least 3 separate samples per cell line.
In general terms: ATP-based viability assays read luminescence as a measure of living cells.

A further experiment relates to HT-29. The experiment can be described thus: CellTiter-Glo growth inhibition, HT-29. Type of experiment: cell-based, human. The following applies: ten-fold serial dilutions, wild type Ras line. The method, then: as §1, with “Cells can include A-549, HT-29, MDA-MB-231, Colo-205, Caco2, HCT-116, SW-480, and DLD-1 human cancer cells obtained from the American Type Culture Collection (ATCC). Human tumor cells are cultured using standard methods in RPMI-1640 growth medium supplemented with 5% fetal bovine serum (FBS).” left out
as §3

The subject of a further experiment is DLD-1. In words: CellTiter-Glo growth inhibition, DLD-1. The following applies: ten-fold serial dilutions, ras-mutant line. Type of experiment: cell-based, human. On the procedure: as §1, with “Cells can include A-549, HT-29, MDA-MB-231, Colo-205, Caco2, HCT-116, SW-480, and DLD-1 human cancer cells obtained from the American Type Culture Collection (ATCC). Human tumor cells are cultured using standard methods in RPMI-1640 growth medium supplemented with 5% fetal bovine serum (FBS).” left out
as §3

Another experiment relates to SW-480. The experiment can be described thus: CellTiter-Glo growth inhibition, SW-480. Type of experiment: cell-based, human. As to conditions: ten-fold serial dilutions, ras-mutant line. The method, then: as §1, with “Cells can include A-549, HT-29, MDA-MB-231, Colo-205, Caco2, HCT-116, SW-480, and DLD-1 human cancer cells obtained from the American Type Culture Collection (ATCC). Human tumor cells are cultured using standard methods in RPMI-1640 growth medium supplemented with 5% fetal bovine serum (FBS).” left out
as §3

The next experiment relates to Caco-2. The experiment can be described thus: CellTiter-Glo growth inhibition, Caco-2. The class given is cell-based, human. The following applies: ten-fold serial dilutions, wild type Ras line. The method, then:
as §1, with “Cells can include A-549, HT-29, MDA-MB-231, Colo-205, Caco2, HCT-116, SW-480, and DLD-1 human cancer cells obtained from the American Type Culture Collection (ATCC). Human tumor cells are cultured using standard methods in RPMI-1640 growth medium supplemented with 5% fetal bovine serum (FBS).” left out
as §3

The next experiment deals with COLO-205. The experiment can be described thus: CellTiter-Glo growth inhibition, COLO-205. Type of experiment: cell-based, human. The following applies: ten-fold serial dilutions, wild type Ras line, lowest level of active Ras. The method, then:
as §1, with “Cells can include A-549, HT-29, MDA-MB-231, Colo-205, Caco2, HCT-116, SW-480, and DLD-1 human cancer cells obtained from the American Type Culture Collection (ATCC). Human tumor cells are cultured using standard methods in RPMI-1640 growth medium supplemented with 5% fetal bovine serum (FBS).” left out
as §3

Experiment [3] deals with panel of human colorectal cancer cell lines. In words: Growth inhibition by known Ras pathway inhibitors across the cell line panel. Type of experiment: cell-based. As to conditions: comparison of potency across cell lines with differing Ras activation. On the procedure: This example illustrates cell growth assays that can be employed in the present invention. Cells can include A-549, HT-29, MDA-MB-231, Colo-205, Caco2, HCT-116, SW-480, and DLD-1 human cancer cells obtained from the American Type Culture Collection (ATCC). Human tumor cells are cultured using standard methods in RPMI-1640 growth medium supplemented with 5% fetal bovine serum (FBS). Normal rat kidney (NRK) and Ki-Ras transformed NRK cells (K-NRK) are obtained from ATCC, and were cultured according to supplier recommendations. CellTiter-Glo ATP cell growth assay reagents are obtained from Promega and used according to the manufacturer's protocol. […] At the end of a 3-day treatment period, growth inhibition is analyzed using a bioluminescent assay of ATP concentration (Promega CellTiter-Glo) according to the manufacturer's protocol. The resulting luminescence is measured using the luminescence cartridge of the Molecular Devices Spectramax Paradigm microplate reader. The relative growth inhibition for each sample is determined by comparison with the values obtained for vehicle treated control samples. […]
This example illustrates the levels of Ras activation in different colorectal cancer cells. […] The ratio of the intensity of the Ras to GAPDH bands was expressed as relative Ras activation, which is presented above each lane in FIG. 4. […]

Experiment [4] deals with cells expressing oncogenic H-Ras. The following applies: literature value, NIH probe report, cited from earlier work.
The mark [5] stands for this setting: Homo sapiens, HCT-116, 384-well plates.
[6] abbreviates: Homo sapiens, HT-29, 384-well plates.
Setting [7] is: Homo sapiens, DLD-1, 384-well plates.
The mark [8] stands for this setting: Homo sapiens, SW480, 384-well plates.
Where [9] appears, read: Homo sapiens, Caco-2, 384-well plates.
[10] abbreviates: Homo sapiens, COLO 205, 384-well plates.

Each structure is given as a SMILES string. Bounds are passed on as bounds.

Consider `COc1cc(/C=C2/C(C)=C(CC(=O)Nc3ccc(F)cc3)c3cc(F)ccc32)cc(OC)c1O` [Compound 054, (Z)-2-(5-fluoro-1-(4-hydroxy-3,5-dimethoxybenzylidene)-2-methyl-1H-inden-3-yl)-N-(4-fluorophenyl)acetamide], for which, in [1], the HT-29/HCT-116 selectivity value stood at 14. Besides, in experiment [2], the HT-29/SW-480 selectivity value came out at 16.

Consider `COc1cc(/C=C2/C(C)=C(CC(=O)Nc3ccc(Cl)cc3)c3cc(F)ccc32)cc(OC)c1O` [Compound 055, (Z)—N-(4-chlorophenyl)-2-(5-fluoro-1-(4-hydroxy-3,5-dimethoxybenzylidene)-2-methyl-1H-inden-3-yl)acetamide], for which the HT-29/HCT-116 selectivity value in experiment [1] came out at 11. The HT-29/SW-480 selectivity value in [2] is listed as 13.

As to `COc1cc(/C=C2/C(C)=C(CC(=O)Nc3ccc(Cl)c(Cl)c3)c3cc(F)ccc32)cc(OC)c1O` [Compound 056, (Z)—N-(3,4-dichlorophenyl)-2-(5-fluoro-1-(4-hydroxy-3,5-dimethoxybenzylidene)-2-methyl-1H-inden-3-yl)acetamide], the HT-29/HCT-116 selectivity value in [1] turned out to be 5. Moreover, the HT-29/SW-480 selectivity value in experiment [2] was 5.

Take `COc1cc(/C=C2/C(C)=C(CC(=O)Nc3ccc(Br)cc3)c3cc(F)ccc32)cc(OC)c1O` [Compound 057, (Z)—N-(4-bromophenyl)-2-(5-fluoro-1-(4-hydroxy-3,5-dimethoxybenzylidene)-2-methyl-1H-inden-3-yl)acetamide]: in [1], the HT-29/HCT-116 selectivity value amounted to 18. For the same compound, in experiment [2], the HT-29/SW-480 selectivity value is 19.

With `COc1cc(/C=C2/C(C)=C(CC(=O)Nc3cccc(Br)c3)c3cc(F)ccc32)cc(OC)c1O` [Compound 058, (Z)—N-(3-bromophenyl)-2-(5-fluoro-1-(4-hydroxy-3,5-dimethoxybenzylidene)-2-methyl-1H-inden-3-yl)acetamide], in experiment [1], the HT-29/HCT-116 selectivity value is 13. For the same compound, in [2], the HT-29/SW-480 selectivity value was 16.

Consider `OCCn1cc(-c2ccc3c(c2)CC/C3=N\O)c(-c2ccncc2)n1` [GDC0879], for which the 50% inhibitory concentration (IC50) with HCT-116 (setting [5]) is 8.14 µM; with HT-29 (setting [6]), ≥ 23.6 µM; in the experiment with DLD-1 (setting [7]), 7.64 µM; in the experiment with SW-480 (setting [8]), > 20 µM; in the experiment with Caco-2 (setting [9]), > 20 µM; in the experiment on COLO-205 (setting [10]), 0.0758 µM.

Consider `O=C1Nc2ccc(I)cc2/C1=C/c1cc(Br)c(O)c(Br)c1` [GW5074], for which the concentration for half-maximal inhibition (IC50) was 15.8 µM with HCT-116 (384-well plates); 19.1 µM with HT-29 (384-well plates); 7.75 µM with DLD-1 (384-well plates); 8.07 µM with SW-480 (384-well plates); > 20 µM with Caco-2 (384-well plates); 7.1 µM with COLO-205 (384-well plates). For the same compound, the “selectivity with regard to Ras activation” value in experiment [3] is “did not show selectivity for cell lines expressing activated Ras”.

On to `Cc1onc(C(=O)N2CCN(C(c3ccc(Cl)cc3)c3ccc(Cl)cc3)CC2)c1[N+](=O)[O-]` [ML210], for which the “selectivity versus cells lacking oncogenic Ras” value in experiment [4] is given as 4 fold. For the same compound, the IC50 in [4] (read-out: IC50, growth of cells expressing mutant Ras) is 0.071 µM.

For `Cn1cnc2c(F)c(Nc3ccc(Br)cc3Cl)c(C(=O)NOCCO)cc21` [Selumetinib], the IC50 in the experiment with HCT-116 (setting [5]) was 4.11 µM; in the experiment with HT-29 (setting [6]) it was 0.854 µM; in the experiment on DLD-1 (setting [7]), ≥ 20.4 µM; with SW-480 (setting [8]) it was > 20 µM; in the experiment on Caco-2 (setting [9]), > 20 µM; in the experiment on COLO-205 (setting [10]) it was 0.0046 µM.

Turning to `CCCS(=O)(=O)Nc1ccc(F)c(C(=O)c2c[nH]c3ncc(-c4ccc(Cl)cc4)cc23)c1F` [Vemurafenib], the concentration for half-maximal inhibition (IC50) with HCT-116 (setting [5]) worked out at 5.99 µM; in the experiment with HT-29 (setting [6]) it was 5.1 µM; in the experiment on DLD-1 (setting [7]), 5.62 µM; in the experiment with SW-480 (setting [8]) it was 6.86 µM; in the experiment on Caco-2 (setting [9]), 5.2 µM; with COLO-205 (setting [10]), 0.151 µM.

As a reminder, the IC50 is the concentration that gives 50% inhibition.
